# From patent US12240840B2, “Amide-substituted heterocyclic compounds for the treatment of conditions related to the modulation of IL-12, IL-23 and/or IFN-alpha” (BRISTOL-MYERS SQUIBB COMPANY, priority 2018, dated 2025)
# Test system: IFNα-induced pSTAT5 (pY694) in CD3 positive cells of human whole blood
# Assay: IFNα-Induced STAT Phosphorylation in Human Whole Blood
# Assay type: cell-based
# Details: Homo sapiens, 1 h compound incubation, 1000 U/mL recombinant human IFNα A/D for 15 min, pSTAT5 in CD3 positive population, read-out: Human WB IFNα-Induced Stat Phosph. (IC50)
# Method in brief: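 Read-out is median fluorescence intensity of pSTAT5 (pY694) in the CD3-positive gate, by flow cytometry after fix/lyse and permeabilization. Before that, whole human blood anticoagulated with EDTA or ACD-A received compound for an hour and 1000 U/mL IFNα A/D for 15 min.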
row,Structure (SMILES),IC50 [nM]
1,[2H]C([2H])([2H])NC(=O)c1nnc(NC(=O)C2CC2)cc1Nc1cccc(-c2ncc(C(=O)NCCCC)s2)c1OC [Example 314],260
2,[2H]C([2H])([2H])NC(=O)c1nnc(NC(=O)C2CC2)cc1Nc1cccc(-c2ncc(C(=O)N3CCC(N(C)C)CC3)s2)c1OC [Example 315],22
3,[2H]C([2H])([2H])NC(=O)c1nnc(NC(=O)C2CC2)cc1Nc1cccc(-c2ncc(C(=O)NCCCCC)s2)c1OC [Example 316],330
4,[2H]C([2H])([2H])NC(=O)c1nnc(NC(=O)C2CC2)cc1Nc1cccc(-c2ncc(C(=O)NCCCN(C)C)s2)c1OC [Example 317],30
5,[2H]C([2H])([2H])NC(=O)c1nnc(NC(=O)C2CC2)cc1Nc1cccc(-c2ncc(C(=O)N3CCC(CCN4CCCC4)CC3)s2)c1OC [Example 318],80
6,[2H]C([2H])([2H])NC(=O)c1nnc(NC(=O)C2CC2)cc1Nc1cccc(-c2ncc(C(=O)NC3CCC(N(CC)CC)CC3)s2)c1OC (centres unmarked) [Example 319],30
7,[2H]C([2H])([2H])NC(=O)c1nnc(NC(=O)C2CC2)cc1Nc1cccc(-c2ncc(C(=O)N3CC(C)(C)C3)s2)c1OC [Example 320],50
8,[2H]C([2H])([2H])NC(=O)c1nnc(NC(=O)C2CC2)cc1Nc1cccc(-c2ncc(C(=O)NCCN3CCOCC3)s2)c1OC [Example 321],30
9,[2H]C([2H])([2H])NC(=O)c1nnc(NC(=O)C2CC2)cc1Nc1cccc(-c2ncc(C(=O)NCCN3CCN(C)CC3)s2)c1OC [Example 322],80
10,[2H]C([2H])([2H])NC(=O)c1nnc(NC(=O)C2CC2)cc1Nc1cccc(-c2ncc(C(=O)NCCN3CCCC(C)C3)s2)c1OC (centres unmarked) [Example 324],60
11,[2H]C([2H])([2H])NC(=O)c1nnc(NC(=O)C2CC2)cc1Nc1cccc(-c2ncc(C(=O)N3CCC(CCOC)CC3)s2)c1OC [Example 325],110
12,[2H]C([2H])([2H])NC(=O)c1nnc(NC(=O)C2CC2)cc1Nc1cccc(-c2ncc(C(=O)NCC3CCN(C)C3)s2)c1OC (centres unmarked) [Example 326],30
13,[2H]C([2H])([2H])NC(=O)c1nnc(NC(=O)C2CC2)cc1Nc1cccc(-c2ncc(C(=O)N[C@H]3CN4CCC3CC4)s2)c1OC [Example 327],150
14,[2H]C([2H])([2H])NC(=O)c1nnc(NC(=O)C2CC2)cc1Nc1cccc(-c2ncc(C(=O)N3CCC3C)s2)c1OC (centres unmarked) [Example 328],160
15,[2H]C([2H])([2H])NC(=O)c1nnc(NC(=O)C2CC2)cc1Nc1cccc(-c2ncc(C(=O)NCC3CCCCN3C)s2)c1OC (centres unmarked) [Example 329],50
16,[2H]C([2H])([2H])NC(=O)c1nnc(NC(=O)C2CC2)cc1Nc1cccc(-c2ncc(C(=O)NC[C@H]3CCCN3CC)s2)c1OC [Example 330],70
17,[2H]C([2H])([2H])NC(=O)c1nnc(NC(=O)C2CC2)cc1Nc1cccc(-c2ncc(C(=O)N3CC(=O)NC(=O)C3)s2)c1OC [Example 331],560
18,[2H]C([2H])([2H])NC(=O)c1nnc(NC(=O)C2CC2)cc1Nc1cccc(-c2ncc(C(=O)NCC(O)CN3CCCC3=O)s2)c1OC (centres unmarked) [Example 332],40
19,[2H]C([2H])([2H])NC(=O)c1nnc(NC(=O)C2CC2)cc1Nc1cccc(-c2ncc(C(=O)N3CC(N(C)C)C3)s2)c1OC [Example 334],50
20,[2H]C([2H])([2H])NC(=O)c1nnc(NC(=O)C2CC2)cc1Nc1cccc(-c2ncc(C(=O)NCCCN(CC)CC)s2)c1OC [Example 335],50
21,[2H]C([2H])([2H])NC(=O)c1nnc(NC(=O)C2CC2)cc1Nc1cccc(-c2ncc(C(=O)N3CCNC(=O)C3C)s2)c1OC (centres unmarked) [Example 336],260
22,[2H]C([2H])([2H])NC(=O)c1nnc(NC(=O)C2CC2)cc1Nc1cccc(-c2ncc(C(=O)NC3CCCN(C)C3)s2)c1OC (centres unmarked) [Example 337],70
23,[2H]C([2H])([2H])NC(=O)c1nnc(NC(=O)C2CC2)cc1Nc1cccc(-c2ncc(C(=O)N[C@H]3C[C@H]4CC[C@@H](C3)N4C)s2)c1OC [Example 338],420
